From BigSolDB 2.1

Nc1cccc(N)n1
Conditions | solubility (mole fraction)
in ethanol, 266.95 K | 0.0751
in ethanol, 270.35 K | 0.0853
in ethanol, 274.15 K | 0.0992
in ethanol, 277.45 K | 0.108
in ethanol, 281.15 K | 0.123
in ethanol, 286.35 K | 0.148
in ethanol, 290.15 K | 0.166
in ethanol, 293.55 K | 0.182
in ethanol, 297.15 K | 0.204
in ethanol, 301.15 K | 0.226
in ethanol, 304.55 K | 0.236
in ethanol, 307.95 K | 0.266
in ethanol, 312.05 K | 0.282
in ethanol, 316.25 K | 0.319
in ethanol, 321.25 K | 0.342
in ethylbenzene, 273.25 K | 0.00022
in ethylbenzene, 277.15 K | 0.00026
in ethylbenzene, 282.25 K | 0.00033
in ethylbenzene, 285.55 K | 0.00035
in ethylbenzene, 289.45 K | 0.00046
in ethylbenzene, 293.05 K | 0.00049
in ethylbenzene, 298.65 K | 0.00066
in ethylbenzene, 302.25 K | 0.00069
in ethylbenzene, 305.35 K | 0.00086
in ethylbenzene, 309.55 K | 0.0009
in ethylbenzene, 313.15 K | 0.00113
in ethylbenzene, 317.35 K | 0.0012
in ethylbenzene, 321.25 K | 0.0015
in ethylbenzene, 326.15 K | 0.00164
in ethylbenzene, 329.45 K | 0.00197
in ethylbenzene, 333.35 K | 0.00212
in ethylbenzene, 336.95 K | 0.00252
in ethylbenzene, 341.05 K | 0.00288
in ethylbenzene, 346.25 K | 0.0033
in ethylbenzene, 349.55 K | 0.00385
in ethylbenzene, 353.05 K | 0.0043
in ethylbenzene, 357.05 K | 0.00474
in ethylbenzene, 361.15 K | 0.00577
in isopropanol, 266.25 K | 0.0222
in isopropanol, 269.95 K | 0.028
in isopropanol, 274.15 K | 0.0302
in isopropanol, 277.55 K | 0.0379
in isopropanol, 281.15 K | 0.0401
in isopropanol, 285.65 K | 0.0512
in isopropanol, 290.15 K | 0.0565
in isopropanol, 293.65 K | 0.068
in isopropanol, 297.25 K | 0.0732
in isopropanol, 301.15 K | 0.0887
in isopropanol, 305.15 K | 0.0976
in isopropanol, 308.25 K | 0.114
in isopropanol, 311.15 K | 0.12
in isopropanol, 315.85 K | 0.147
in isopropanol, 319.25 K | 0.159
in methanol, 266.15 K | 0.0598
in methanol, 269.95 K | 0.066
in methanol, 274.15 K | 0.0779
in methanol, 278.05 K | 0.0888
in methanol, 281.15 K | 0.0933
in methanol, 285.95 K | 0.111
in methanol, 290.15 K | 0.125
in methanol, 297.15 K | 0.15
in methanol, 301.15 K | 0.165
in methanol, 304.55 K | 0.178
in methanol, 307.95 K | 0.188
in methanol, 311.15 K | 0.207
in methanol, 317.85 K | 0.233
in o-xylene, 273.35 K | 0.00128
in o-xylene, 277.15 K | 0.0014
in o-xylene, 282.25 K | 0.00185
in o-xylene, 285.55 K | 0.00201
in o-xylene, 289.45 K | 0.00252
in o-xylene, 293.65 K | 0.00283
in o-xylene, 297.55 K | 0.00351
in o-xylene, 302.25 K | 0.00395
in o-xylene, 305.35 K | 0.00469
in o-xylene, 309.55 K | 0.00517
in o-xylene, 314.15 K | 0.0064
in o-xylene, 317.35 K | 0.00695
in o-xylene, 321.25 K | 0.00838
in o-xylene, 325.95 K | 0.00937
in o-xylene, 329.45 K | 0.011
in o-xylene, 333.35 K | 0.0121
in o-xylene, 336.95 K | 0.0144
in o-xylene, 341.15 K | 0.0153
in o-xylene, 346.25 K | 0.0194
in o-xylene, 349.55 K | 0.0226
in o-xylene, 353.45 K | 0.024
in o-xylene, 357.05 K | 0.0292
in o-xylene, 361.05 K | 0.034
in o-xylene, 361.25 K | 0.0367
in toluene, 273.25 K | 0.00149
in toluene, 277.15 K | 0.00191
in toluene, 281.25 K | 0.00214
in toluene, 285.55 K | 0.0027
in toluene, 289.45 K | 0.00304
in toluene, 293.65 K | 0.00375
in toluene, 297.55 K | 0.00417
in toluene, 301.45 K | 0.0051
in toluene, 305.35 K | 0.00558
in toluene, 309.55 K | 0.00704
in toluene, 313.45 K | 0.00733
in toluene, 317.35 K | 0.00919
in toluene, 321.25 K | 0.00942
in toluene, 325.55 K | 0.0124
in toluene, 329.45 K | 0.0127
in toluene, 333.35 K | 0.0162
in toluene, 337.25 K | 0.0164
in toluene, 341.15 K | 0.0207
in toluene, 345.65 K | 0.022
in toluene, 349.55 K | 0.0277
in toluene, 353.45 K | 0.0283
in toluene, 357.35 K | 0.0355
